Measurements from ChEMBL document CHEMBL3885861, “Open TG-GATES”.

Species on record: Rattus norvegicus
Test: Open TG-GATES - Regimen: Daily Repeat
Format: toxicity, organism-based, Sprague-Dawley
Parameters: regimen Daily Repeat, gender Male, age 6 weeks
Conditions: in vivo, po, route gavage; for APTT / Bas / Eos / Fbg / Hb / Ht / Lym / MCHC / MCV / Mono / Neu / PT / Plat / RBC / Ret / WBC / MCH: tissue Blood; for KIDNEY_L / KIDNEY_R / KIDNEY_TOTAL: tissue Kidney; for LIVER: tissue Liver; for ALP / ALT / AST / BUN / CRE / Ca / DBIL / GLC / K / LDH / Na / PL / RALB / TBIL / TC / TG / TP / gamma-GTP: tissue Plasma
[1] = 0 mg/kg, 72 h, dose level Control, time 3 day
[2] = 0 mg/kg, […], dose level Control, time 7 day
[3] = 0 mg/kg, […], dose level Control, time 14 day
[4] = 0 mg/kg, […], dose level Control, time 28 day
[5] = 20 mg/kg, 72 h, dose level Low, time 3 day
[6] = 20 mg/kg, […], dose level Low, time 7 day
[7] = 20 mg/kg, […], dose level Low, time 14 day
[8] = 20 mg/kg, […], dose level Low, time 28 day

CCCCc1oc2ccccc2c1C(=O)c1cc(I)c(OCCN(CC)CC)c(I)c1 [AMIODARONE]
TERMINAL_BW [1]: 226.9 g | APTT [1]: 18.2 s | Bas [1]: 0% | Eos [1]: 0.8% | Fbg [1]: 229 mg/dL | Hb [1]: 13.5 g/dL | Ht [1]: 39.6% | Lym [1]: 74.8% | MCHC [1]: 34.1% | MCV [1]: 62.7 fL | Mono [1]: 3% | Neu [1]: 20.4% | PT [1]: 12.3 s | Plat [1]: 122.3 x10_4/uL | RBC [1]: 631.4 x10_4/ul | Ret [1]: 6.4% | WBC [1]: 91.2 x10_2/uL | KIDNEY_L [1]: 1 g | KIDNEY_R [1]: 1 g | KIDNEY_TOTAL [1]: 2 g | LIVER [1]: 11.2 g | ALP [1]: 985.8 IU/L | ALT [1]: 37.8 IU/L | AST [1]: 72.6 IU/L | BUN [1]: 16.2 mg/dL | CRE [1]: 0.4 mg/dL | Ca [1]: 10.9 mg/dL | DBIL [1]: 0.096 mg/dL | GLC [1]: 207.4 mg/dL | K [1]: 3.9 meq/L | LDH [1]: 213 IU/L | Na [1]: 140.6 meq/L | PL [1]: 162.4 mg/dL | RALB [1]: 3.5 g/dL | TBIL [1]: 0.1 mg/dL | TC [1]: 77.6 mg/dL | TG [1]: 113.2 mg/dL | TP [1]: 5.8 g/dL | gamma-GTP [1]: 1 IU/L | TERMINAL_BW [2]: 253.9 g | TERMINAL_BW [3]: 312.1 g | TERMINAL_BW [4]: 382 g | APTT [2]: 19.5 s | Bas [2]: 0% | Eos [2]: 1% | Fbg [2]: 218.2 mg/dL | Hb [2]: 13.6 g/dL | Ht [2]: 39.8% | Lym [2]: 78.4% | MCH [2]: 21.2 pg | MCV [2]: 61.9 fL | Mono [2]: 2.4% | Neu [2]: 17% | PT [2]: 12 s | Plat [2]: 117.4 x10_4/uL | RBC [2]: 642.8 x10_4/ul | Ret [2]: 5.1% | WBC [2]: 102.5 x10_2/uL | APTT [3]: 19.9 s | Bas [3]: 0% | Eos [3]: 0.8% | Fbg [3]: 231.8 mg/dL | Hb [3]: 14.4 g/dL | Ht [3]: 41.2% | Lym [3]: 81.4% | MCH [3]: 20.9 pg | MCHC [3]: 34.8% | MCV [3]: 59.9 fL | Mono [3]: 2.8% | Neu [3]: 13.8% | Plat [3]: 128.6 x10_4/uL | RBC [3]: 689.2 x10_4/ul | Ret [3]: 4.6% | WBC [3]: 85.2 x10_2/uL | APTT [4]: 21.2 s | Bas [4]: 0% | Eos [4]: 1% | Fbg [4]: 224.6 mg/dL | Hb [4]: 15.5 g/dL | Ht [4]: 43.9% | Lym [4]: 78.4% | MCH [4]: 19.9 pg | MCHC [4]: 35.4% | MCV [4]: 56.3 fL | Mono [4]: 2.4% | Neu [4]: 17.2% | PT [4]: 12.4 s | Plat [4]: 111.1 x10_4/uL | RBC [4]: 779.2 x10_4/ul | Ret [4]: 2.6% | WBC [4]: 92.4 x10_2/uL | KIDNEY_L [2]: 1.1 g | KIDNEY_R [2]: 1.1 g | KIDNEY_TOTAL [2]: 2.2 g | KIDNEY_L [3]: 1.2 g | KIDNEY_R [3]: 1.2 g | KIDNEY_TOTAL [3]: 2.5 g | KIDNEY_L [4]: 1.4 g | KIDNEY_R [4]: 1.3 g | KIDNEY_TOTAL [4]: 2.7 g | LIVER [2]: 12.1 g | LIVER [3]: 14.6 g | LIVER [4]: 15 g | ALP [2]: 963.6 IU/L | ALT [2]: 34 IU/L | AST [2]: 62.6 IU/L | BUN [2]: 16.6 mg/dL | CRE [2]: 0.4 mg/dL | Ca [2]: 10.6 mg/dL | DBIL [2]: 0.1 mg/dL | GLC [2]: 209.6 mg/dL | K [2]: 3.8 meq/L | LDH [2]: 179.6 IU/L | Na [2]: 140.4 meq/L | PL [2]: 158.4 mg/dL | RALB [2]: 3.4 g/dL | TBIL [2]: 0.2 mg/dL | TC [2]: 73.6 mg/dL | TG [2]: 116.6 mg/dL | TP [2]: 5.6 g/dL | gamma-GTP [2]: 1.6 IU/L | ALP [3]: 896.2 IU/L | ALT [3]: 40.6 IU/L | AST [3]: 70.8 IU/L | BUN [3]: 16.6 mg/dL | CRE [3]: 0.5 mg/dL | Ca [3]: 10.7 mg/dL | DBIL [3]: 0.09 mg/dL | GLC [3]: 233.8 mg/dL | K [3]: 3.5 meq/L | LDH [3]: 206.4 IU/L | Na [3]: 140.2 meq/L | PL [3]: 160.8 mg/dL | RALB [3]: 3.5 g/dL | TBIL [3]: 0.2 mg/dL | TG [3]: 117 mg/dL | TP [3]: 6 g/dL | gamma-GTP [3]: 1 IU/L | ALP [4]: 614.8 IU/L | ALT [4]: 37.6 IU/L | AST [4]: 61.6 IU/L | BUN [4]: 17.4 mg/dL | CRE [4]: 0.4 mg/dL | Ca [4]: 10.4 mg/dL | DBIL [4]: 0.1 mg/dL | GLC [4]: 214.4 mg/dL | K [4]: 3.7 meq/L | LDH [4]: 158.6 IU/L | Na [4]: 140.2 meq/L | PL [4]: 151 mg/dL | RALB [4]: 3.4 g/dL | TBIL [4]: 0.2 mg/dL | TC [4]: 67 mg/dL | TG [4]: 152.4 mg/dL | TP [4]: 6 g/dL | gamma-GTP [4]: 1 IU/L | TERMINAL_BW [5]: 226.2 g | Bas [5]: 0% | Eos [5]: 0.8% | Fbg [5]: 227.8 mg/dL | Hb [5]: 13.5 g/dL | Ht [5]: 39% | Lym [5]: 78.2% | MCH [5]: 22.1 pg | MCV [5]: 63.9 fL | Mono [5]: 3% | Neu [5]: 16.6% | PT [5]: 12.8 s | Plat [5]: 125.2 x10_4/uL | RBC [5]: 610.8 x10_4/ul | Ret [5]: 6.1% | WBC [5]: 101.8 x10_2/uL | KIDNEY_L [5]: 1 g | KIDNEY_R [5]: 1 g | KIDNEY_TOTAL [5]: 2.1 g | LIVER [5]: 11 g | ALP [5]: 1159.8 IU/L | ALT [5]: 38.8 IU/L | AST [5]: 71 IU/L | BUN [5]: 17 mg/dL | CRE [5]: 0.4 mg/dL | Ca [5]: 10.7 mg/dL | DBIL [5]: 0.088 mg/dL | GLC [5]: 200 mg/dL | K [5]: 3.8 meq/L | LDH [5]: 215.2 IU/L | Na [5]: 140.4 meq/L | PL [5]: 144.2 mg/dL | RALB [5]: 3.4 g/dL | TBIL [5]: 0.1 mg/dL | TC [5]: 72.8 mg/dL | TG [5]: 88.8 mg/dL | TP [5]: 5.7 g/dL | gamma-GTP [5]: 1.6 IU/L | TERMINAL_BW [6]: 267.4 g | TERMINAL_BW [7]: 322 g | TERMINAL_BW [8]: 379.8 g | APTT [6]: 18.5 s | Bas [6]: 0% | Eos [6]: 0.8% | Fbg [6]: 222 mg/dL | Ht [6]: 39.1% | Lym [6]: 79.6% | MCH [6]: 21.1 pg | MCHC [6]: 34.1% | MCV [6]: 62 fL | Mono [6]: 2.8% | Neu [6]: 15.6% | Plat [6]: 126.6 x10_4/uL | RBC [6]: 630 x10_4/ul | Ret [6]: 6.1% | WBC [6]: 117.1 x10_2/uL | APTT [7]: 19.7 s | Bas [7]: 0% | Eos [7]: 1% | Fbg [7]: 216.8 mg/dL | Hb [7]: 14.2 g/dL | Ht [7]: 41.2% | Lym [7]: 79.6% | MCH [7]: 20.4 pg | MCV [7]: 59.2 fL | Mono [7]: 2.8% | Neu [7]: 15.6% | PT [7]: 12.8 s | Plat [7]: 116.8 x10_4/uL | RBC [7]: 696.4 x10_4/ul | Ret [7]: 4.6% | WBC [7]: 84.5 x10_2/uL | APTT [8]: 19.6 s | Bas [8]: 0% | Eos [8]: 1.2% | Fbg [8]: 221.6 mg/dL | Ht [8]: 43.5% | Lym [8]: 78.2% | MCH [8]: 19.6 pg | MCHC [8]: 35.1% | MCV [8]: 56 fL | Mono [8]: 2.8% | Neu [8]: 16.6% | PT [8]: 12.3 s | Plat [8]: 109.6 x10_4/uL | RBC [8]: 777.2 x10_4/ul | Ret [8]: 2.7% | WBC [8]: 117.6 x10_2/uL | KIDNEY_L [6]: 1.1 g | KIDNEY_R [6]: 1.1 g | KIDNEY_TOTAL [6]: 2.2 g | KIDNEY_L [7]: 1.3 g | KIDNEY_R [7]: 1.3 g | KIDNEY_TOTAL [7]: 2.5 g | KIDNEY_L [8]: 1.3 g | KIDNEY_R [8]: 1.3 g | KIDNEY_TOTAL [8]: 2.6 g | LIVER [6]: 12.7 g | LIVER [7]: 14.6 g | LIVER [8]: 15.5 g | ALP [6]: 1065 IU/L | ALT [6]: 33 IU/L | AST [6]: 61.8 IU/L | CRE [6]: 0.4 mg/dL | Ca [6]: 10.7 mg/dL | DBIL [6]: 0.1 mg/dL | GLC [6]: 216.6 mg/dL | K [6]: 3.8 meq/L | LDH [6]: 197.4 IU/L | Na [6]: 140.6 meq/L | RALB [6]: 3.3 g/dL | TBIL [6]: 0.2 mg/dL | TC [6]: 70.8 mg/dL | TG [6]: 89.4 mg/dL | TP [6]: 5.5 g/dL | gamma-GTP [6]: 1.2 IU/L | ALP [7]: 861.4 IU/L | ALT [7]: 38 IU/L | AST [7]: 63.6 IU/L | BUN [7]: 17.4 mg/dL | CRE [7]: 0.4 mg/dL | Ca [7]: 10.5 mg/dL | DBIL [7]: 0.1 mg/dL | GLC [7]: 220.6 mg/dL | K [7]: 4 meq/L | LDH [7]: 196.2 IU/L | Na [7]: 139.6 meq/L | PL [7]: 161.6 mg/dL | RALB [7]: 3.3 g/dL | TBIL [7]: 0.2 mg/dL | TC [7]: 81.2 mg/dL | TG [7]: 148.2 mg/dL | TP [7]: 5.7 g/dL | gamma-GTP [7]: 1.4 IU/L | ALP [8]: 765.6 IU/L | ALT [8]: 40 IU/L | AST [8]: 66.2 IU/L | BUN [8]: 18.2 mg/dL | CRE [8]: 0.5 mg/dL | Ca [8]: 10.5 mg/dL | DBIL [8]: 0.1 mg/dL | GLC [8]: 213.2 mg/dL | K [8]: 3.8 meq/L | LDH [8]: 192.6 IU/L | Na [8]: 140.4 meq/L | PL [8]: 160.8 mg/dL | RALB [8]: 3.5 g/dL | TBIL [8]: 0.2 mg/dL | TC [8]: 73.8 mg/dL | TG [8]: 164.6 mg/dL | TP [8]: 6.1 g/dL | gamma-GTP [8]: 1.4 IU/L
